# Laboratory results reported in paper PMC3783901, “A spectrophotometric coupled enzyme assay to measure the activity of succinate dehydrogenase^” (Analytical Biochemistry, 2013).
# Like-named read-outs stand apart in the source and are kept apart here.
# Assays:
# [1] = molecular target: T1, complex II (succinate:ubiquinone oxidoreductase, succinate dehydrogenase) in bovine heart submitochondrial particles (Bos taurus, UniProt P31039+P35720+Q3T189+Q95123); assay: coupled FumC-MaeB assay of succinate oxidation in SMPs, NADPH absorbance; assay type: biochemical; conditions: 5 mM succinate, pH 7.4, 32 °C, 2 mM NADP+, 2 mM MgSO4
# T1 construct: gene SDHA; native four-subunit complex in submitochondrial particles from bovine heart mitochondria, not isolated; dicarboxylate site in SDHA, ubiquinone site at SDHB/SDHC/SDHD
# T1 sequence (P31039 44-665): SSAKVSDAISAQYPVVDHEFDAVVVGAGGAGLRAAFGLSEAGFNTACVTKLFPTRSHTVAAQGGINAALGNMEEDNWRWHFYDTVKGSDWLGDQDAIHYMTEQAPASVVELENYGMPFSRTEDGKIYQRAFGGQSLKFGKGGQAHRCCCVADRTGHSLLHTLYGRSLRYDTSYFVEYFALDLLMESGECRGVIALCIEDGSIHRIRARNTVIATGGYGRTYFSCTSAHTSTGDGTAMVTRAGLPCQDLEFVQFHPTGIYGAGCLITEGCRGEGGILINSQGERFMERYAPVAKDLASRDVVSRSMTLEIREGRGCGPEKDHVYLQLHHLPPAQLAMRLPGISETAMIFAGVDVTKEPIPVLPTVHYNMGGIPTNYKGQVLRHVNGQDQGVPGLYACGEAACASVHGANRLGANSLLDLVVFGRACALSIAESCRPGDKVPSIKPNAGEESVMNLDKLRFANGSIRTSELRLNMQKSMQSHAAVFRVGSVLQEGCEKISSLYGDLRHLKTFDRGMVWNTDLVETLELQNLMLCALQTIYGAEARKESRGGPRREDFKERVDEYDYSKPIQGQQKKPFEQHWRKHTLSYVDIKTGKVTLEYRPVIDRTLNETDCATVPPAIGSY
# T1 sequence (Q3T189 29-280): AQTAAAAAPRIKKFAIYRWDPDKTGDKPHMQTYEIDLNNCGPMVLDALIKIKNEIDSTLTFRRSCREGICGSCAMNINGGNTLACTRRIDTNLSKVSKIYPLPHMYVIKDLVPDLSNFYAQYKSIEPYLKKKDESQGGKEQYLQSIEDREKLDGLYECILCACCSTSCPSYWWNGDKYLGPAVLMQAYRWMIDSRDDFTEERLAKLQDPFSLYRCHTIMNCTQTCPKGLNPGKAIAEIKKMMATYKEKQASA
# T1 sequence (P35720 30-169): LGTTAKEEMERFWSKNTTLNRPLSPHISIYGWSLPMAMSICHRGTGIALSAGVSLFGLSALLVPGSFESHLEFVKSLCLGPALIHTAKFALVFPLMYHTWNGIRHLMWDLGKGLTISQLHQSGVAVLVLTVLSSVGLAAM
# T1 sequence (Q95123 56-158): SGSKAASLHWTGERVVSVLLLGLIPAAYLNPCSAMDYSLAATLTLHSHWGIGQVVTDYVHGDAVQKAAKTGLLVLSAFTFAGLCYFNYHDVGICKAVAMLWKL
# Description: coupled FumC-MaeB assay of succinate oxidation in SMPs, NADPH absorbance on complex II (succinate:ubiquinone oxidoreductase, succinate dehydrogenase) in bovine heart submitochondrial particles | atpenin A5, an inhibitor that binds in the complex II ubiquinone-binding site, has an IC50 | malonate, an inhibitor that binds in the complex II flavin site, has an IC50
# [2] = molecular target: FumC (fumarate hydratase) (Escherichia coli, UniProt P05042); conditions: pH 7.4, 32 °C, 10 mM Tris-SO4, 2 mM MgSO4, 1 mM K2SO4, 2 mM NADP+, 300 μg/ml MaeB; kcat apparently per tetramer
# FumC (fumarate hydratase), sequence (P05042 whole entry): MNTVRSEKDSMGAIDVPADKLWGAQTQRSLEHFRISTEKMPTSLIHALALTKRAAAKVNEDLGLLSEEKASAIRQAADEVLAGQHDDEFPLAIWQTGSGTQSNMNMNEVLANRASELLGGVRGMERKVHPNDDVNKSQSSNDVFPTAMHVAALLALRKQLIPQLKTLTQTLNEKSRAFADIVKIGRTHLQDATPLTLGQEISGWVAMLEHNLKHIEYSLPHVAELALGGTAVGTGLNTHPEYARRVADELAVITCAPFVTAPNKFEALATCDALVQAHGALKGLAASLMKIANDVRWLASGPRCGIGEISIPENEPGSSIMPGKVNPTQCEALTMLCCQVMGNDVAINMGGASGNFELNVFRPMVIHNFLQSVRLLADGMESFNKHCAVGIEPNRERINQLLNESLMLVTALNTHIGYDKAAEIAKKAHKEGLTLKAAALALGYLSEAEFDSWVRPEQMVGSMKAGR
# [3] = molecular target: T1, complex II (succinate:ubiquinone oxidoreductase, succinate dehydrogenase) in bovine heart submitochondrial particles; assay: coupled FumC-MaeB assay of succinate oxidation in SMPs, NADPH absorbance; assay type: biochemical; conditions: pH 7.4, 32 °C, 2 mM NADP+, 2 mM MgSO4, endogenous ubiquinone-10, turnover to O2, kcat uses a published complex II content
# purified protein [4] = substrate: O=C(O)C[C@H](O)C(=O)O; assay: purified protein; conditions: 4 mM NADP+, pH 7.4, 32 °C, 10 mM Tris-SO4, 2 mM MgSO4, 1 mM K2SO4, kcat apparently per octamer, malate stereo not given
# purified protein [5] = substrate: NC(=O)c1ccc[n+]([C@@H]2O[C@H](COP(=O)(O)OP(=O)(O)OC[C@H]3O[C@@H](n4cnc5c(N)ncnc54)[C@H](OP(=O)(O)O)[C@@H]3O)[C@@H](O)[C@H]2O)c1; assay: purified protein; conditions: 40 mM malate, pH 7.4, 32 °C, 10 mM Tris-SO4, 2 mM MgSO4, 1 mM K2SO4
molecule,measurement,setting,value
COc1[nH]c(=O)c(C(=O)[C@@H](C)C[C@H](C)[C@@H](Cl)CCl)c(O)c1OC [atpenin A5],IC50,"[1]; ubiquinone-binding site, full respiratory chain turnover to O2",0.0024 ± 0.0012 µM
O=C(O)/C=C/C(=O)O [fumarate],Km,[2],64 ± 7.8 µM
O=C(O)CC(=O)O [malonate],IC50,"[1]; flavin (succinate) site, read-out: IC50",96 ± 1.3 µM
O=C(O)CCC(=O)O [succinate],Km,[3],410 ± 55 µM
MaeB (oxaloacetate decarboxylating malic dehydrogenase) (Escherichia coli K-12) (protein) MDDQLKQSALDFHEFPVPGKIQVSPTKPLATQRDLALAYSPGVAAPCLEIEKDPLKAYKYTARGNLVAVISNGTAVLGLGNIGALAGKPVMEGKGVLFKKFAGIDVFDIEVDELDPDKFIEVVAALEPTFGGINLEDIKAPECFYIEQKLRERMNIPVFHDDQHGTAIISTAAILNGLRVVEKNISDVRMVVSGAGAAAIACMNLLVALGLQKHNIVVCDSKGVIYQGREPNMAETKAAYAVVDDGKRTLDDVIEGADIFLGCSGPKVLTQEMVKKMARAPMILALANPEPEILPPLAKEVRPDAIICTGRSDYPNQVNNVLCFPFIFRGALDVGATAINEEMKLAAVRAIAELAHAEQSEVVASAYGDQDLSFGPEYIIPKPFDPRLIVKIAPAVAKAAMESGVATRPIADFDVYIDKLTEFVYKTNLFMKPIFSQARKAPKRVVLPEGEEARVLHATQELVTLGLAKPILIGRPNVIEMRIQKLGLQIKAGVDFEIVNNESDPRFKEYWTEYFQIMKRRGVTQEQAQRALISNPTVIGAIMVQRGEADAMICGTVGDYHEHFSVVKNVFGYRDGVHTAGAMNALLLPSGNTFIADTYVNDEPDAEELAEITLMAAETVRRFGIEPRVALLSHSNFGSSDCPSSSKMRQALELVRERAPELMIDGEMHGDAALVEAIRNDRMPDSSLKGSANILVMPNMEAARISYNLLRVSSSEGVTVGPVLMGVAKPVHVLTPIASVRRIVNMVALAVVEAQTQPL,Km,purified protein [4],7300 ± 900 µM
same,kcat,purified protein [4],92 ± 0.93 s⁻¹
same,Km,purified protein [5],52 ± 2.6 µM
